Where two headings read alike, the source gives them in different places.
Test system: gray mold fungus (Botrytis cinerea)
Assay: Cucumber leaf disk preventive test against gray mold
Assay type: in vivo
Conditions: for pest or weed control at 0.5 ppm / pest or weed control at 5 ppm: Botrytis cinerea, foliar, 96 h, read-out: preventive value (%)
Procedure: To a SUS beaker are added 30 parts of the present compound (racemate), 5 parts of Soprophor FLK (polyoxyethylene tristyrylphenyl ether phosphate, produced by Rhodia Nicca Ltd.), 65 parts of ion-exchange water and 150 parts of glass beads (1.0 mm diameter). The mixture is subjected to grinding at a velocity of 1000 rpm with cooling to 10° C., and thereafter the glass beads are separated, so as to obtain a flowable formulation comprising the present compound (racemate).
True leaf of cucumber is punched out with cork borer to 13 mm in diameter to prepare a leaf disk. In 24 well microwell plate that is dispensed with 1 ml 0.8% water agar, the leaf disk is placed such that the upper side of the leaf is in an upward direction. Thereto is added 20 micro liter a testing solution prepared by mixing the flowable formulation of the present compound (racemate) prepared by the above procedure and a commercial wettable powder of fludioxonil or chlorothalonil to a predetermined concentration to treat the leaf disk.
After confirming that the testing medical solution is dried, conidium of gray mold fungus (Botrytis cinerea) is suspended into potato dextrose broth (DIFCO) in a density of about 10^5 conidium/mL and is then subjected to a spray inoculation. After leaving to stand the leaf disk in a growth chamber set up at 15° C. for four days, an onset area on the leaf is measured and then calculated an onset area rate (hereinafter, referred to as an onset area rate of treated group).
The same operation is carried out with 20 micro liter water instead of 20 micro liter a testing medicine solution to calculate an onset area rate (hereinafter, referred to an onset area rate of non-treated group).
A preventive value is calculated from the above onset area rate of treated group and the onset area rate of non-treated group by the following equation: Preventive value (%)=100×(A−B)/A
A: an onset area rate of treated group
B: an onset area rate of non-treated group
The same operations as described in Test Example 1 are carried out with cyflufenamid, diethofencarb, dithianon, fluazinam, flusulfamide, fosetyl-Al, metrafenon, penflufen, phthalide, sedaxane, spiroxamine or tebufloquin, instead of fludioxonil or chlorothalonil, so as to calculate respective preventive values.
Also for comparison, the same operations as described in Test Example 1 are carried out with the exception that the testing medicine solution is substituted with a predetermined concentration of each dimethyl sulfoxide solution of the present compound (racemate), cyflufenamid, diethofencarb, dithianon, fluazinam, flusulfamide, fosetyl-Al, metrafenon, penflufen, phthalide, sedaxane, spiroxamine or tebufloquin, so as to calculate respective preventive values.
For comparison, the same operations as described in Test Example 1 are carried out with the exception that the testing medicine solution is substituted with a predetermined concentration of each dimethyl sulfoxide solution of fludioxonil or chlorothalonil, so as to calculate a preventive value.

[1] = partner fungicide alone 0.5 ppm, dimethyl sulfoxide solution, cucumber leaf disk, 15° C., four days
[2] = partner fungicide alone 5.0 ppm, dimethyl sulfoxide solution, cucumber leaf disk, 15° C., four days

Row | Compound | preventive value (%) [1] | preventive value (%) [2] | pest or weed control at 0.5 ppm [1] | pest or weed control at 5 ppm [2] | also measured
1 | CC(=O)Oc1c(C)c(C)nc2c(F)cc(C(C)(C)C)cc12 [tebufloquin] | 10% | 15% | – | – | –
2 | O=[N+]([O-])c1ccc(NS(=O)(=O)c2ccc(Cl)c(C(F)(F)F)c2)c(Cl)c1 [flusulfamide] | – | – | – | – | pest or weed control at 0.5 ppm: 15%; pest or weed control at 5 ppm: 20%
3 | N#Cc1c[nH]cc1-c1cccc2c1OC(F)(F)O2 [fludioxonil] | – | – | – | – | pest or weed control at 0.5 ppm: 45%; pest or weed control at 5 ppm: 57%
4 | O=C1OCc2ccccc21 [phthalide] | – | – | 10% | 15% | –
5 | CCOc1ccc(NC(=O)OC(C)C)cc1OCC [diethofencarb] | – | – | 0% | 0% | –
6 | O=[N+]([O-])c1cc(C(F)(F)F)c(Cl)c([N+](=O)[O-])c1Nc1ncc(C(F)(F)F)cc1Cl [fluazinam] | – | – | 47% | 52% | –
7 | COc1cc(C)c(C(=O)c2c(OC)ccc(Br)c2C)c(OC)c1OC [metrafenon] | 10% | 15% | – | – | –
8 | O=C(Cc1ccccc1)N/C(=N\OCC1CC1)c1c(C(F)(F)F)ccc(F)c1F [cyflufenamid] | – | – | 10% | 15% | –
9 | CCCN(CC)CC1COC2(CCC(C(C)(C)C)CC2)O1 (stereo not shown) [spiroxamine] | – | – | 10% | 15% | –
10 | Cn1cc(C(=O)Nc2ccccc2C2CC2C2CC2)c(C(F)F)n1 (stereo not shown) [sedaxane] | 20% | 40% | – | – | –
11 | Cc1nn(C)c(F)c1C(=O)Nc1ccccc1C(C)CC(C)C (stereo not shown) [penflufen] | 10% | 15% | – | – | –
12 | N#Cc1sc2c(=O)c3ccccc3c(=O)c=2sc1C#N [dithianon] | – | – | 15% | 20% | –
13 | CCO[PH](=O)O [fosetyl-Al] | 15% | 20% | – | – | –
14 | N#Cc1c(Cl)c(Cl)c(Cl)c(C#N)c1Cl [chlorothalonil] | – | – | 15% | 45% | –
